Usually inhibition stands for the change of the read-out against control, counted positive when it falls.

The values that follow come from patent US8455440B2, “Combination anticoagulant therapy with a compound that acts as a factor Xa inhibitor” (Millennium Pharmaceuticals, Inc., priority 2007, dated 2013).

One data set has as its system thrombin generation. In words: Thrombin generation inhibition assay. The data set is classed as biochemical, human. The method, then:
After 10 min, the reaction was stopped by addition of EGTA. A chromogenic peptide substrate (Spectrozyme TH, American Diagnostica) specific for thrombin was added to measure the activity of thrombin generated during the tissue factor treatment period. After allowing the substrate cleavage reaction to proceed for 2 min, the samples were quenched with glacial acetic acid. The plasma samples were analyzed in triplicate in a 96-well plate format. […] The control samples were used to establish plate acceptance criteria. Absorbance of each sample well was measured at 405 nm.
Thrombin generation (% Inhibition) was calculated from absorbance at 405 nm (A405) by the following equation: %Inhibition=(1−A405/Baseline)×100.
Since thrombin generation inhibition values were reported as a percentage there is no lower limit of quantitation in this assay.

The subject of data set [1] is ADP induced platelet aggregation. Description: Ex vivo platelet aggregation induced by 10 μM ADP. To be noted: Rattus norvegicus, read-out: % inhibition of platelet aggregation. The data set is classed as in vivo. The method, then: (§1) In this experiment, the ability of Compound A to maintain vessel patency under arterial flow conditions in ferric chloride induced thrombosis in rat carotid artery is compared to that achieved by clopidogrel. Compound A was administered by intravenous infusions and clopidogrel was dosed orally for three days. Ex vivo platelet aggregation induced by 10 μM ADP and clotting times (prothrombin time, PT and activated partial thromboplastin times, aPTT) were measured over the experimental time course (90 min) in all animals.
This level of platelet inhibition is approximately equivalent to that attained by clopidogrel's effect on human platelets at the therapeutic dose in clinical use (75 mg per day). […] Time to occlusion was measured in animals that had vessel occlusion.

The test system of data set [2] is clotting times (prothrombin time, PT and activated partial thromboplastin times, aPTT). In words: Ex vivo clotting times (PT, aPTT) in the rat thrombosis model. The method, then:
as §1
as §1, with “The combination effect of an anticoagulant and anti-platelet agent, aspirin, was investigated in an in vivo model of thrombosis. […] In” for “In”, “aspirin.” for “clopidogrel.”, “aspirin” for “clopidogrel”, “administered as an intravenous bolus approximately 30 min prior to the start of the experiment.” for “dosed orally for three days.”, “μg/mL of collagen” for “μM ADP”

The test system of the next data set is cytokine release. In words: Ex vivo assay of human cytokine release in collagen activated whole blood. The data set is classed as cell-based. Particulars: Compound A single treatment (50 to 500 nM), blood of healthy untreated donors, collagen 4 μg/mL. The method, then: (§2) An ex vivo assay system of human cytokine release was used to test whether inhibition of factor Xa should augment the effect of reduction of inflammation elicited by standard anti-inflammatory drugs, such as aspirin.
(§3) Following addition of Compound A (50 to 500 nM) to the blood samples, control and treated samples were activated by addition of collagen (Chronolog, 4 μg/mL) and gently rotated at 37° C. for 45 min. At the end of the activation period, blood samples were centrifuged at 13,000 rpm (15,000 g) for 5 min in an Eppendorf 5415G centrifuge. Plasma was removed, treated with protease inhibitor cocktail (Roche) and stored frozen at −80° C. Cytokines released from the blood cells were quantitated in a Multiplexed Biomarker Immunoassay for Luminex Instrumentation (Millipore USA). […] For example, in the plasma samples from six donors, the mean amount of interleukin 4 was 28.4 pg/mL in the untreated control and 26.8 to 29.4 pg/mL in the Compound A treated samples. […] Thus in this ex vivo system Compound A was capable of providing additional beneficial effect over a widely used anti-inflammatory agent.

The next data set concerns Interleukin 6. Description: Ex vivo cytokine release in human whole blood: interleukin 6. The class given is cell-based. Particulars: for fold change of Interleukin 6 release: combination with Aspirin (0 nM = 1). The method, then:
as §2, §3

The subject of the next data set is Interleukin 8. Description: Ex vivo cytokine release in human whole blood: interleukin 8. The data set is classed as cell-based.
Data set [3] in a line: Plasma concentrations of Compound A in telemeterized dogs. The class given is in vivo. Particulars: combination with verapamil. From the text: It is further contemplated that in patients being treated for atrial fibrillation, blood pressure lowering drugs such as beta blockers or calcium channel blockers and Compound A may be used concomitantly. Drugs like verapamil are known inhibitors of p-glycoprotein function. […] See Example 10.
The study was designed to evaluate the in vivo effect of Compound A upon co-administration with a selective L type calcium channel blocker, verapamil. Three beagle dogs were implanted with Data Science Telemetry transmitters (DSI model # TL11M2-D70-PCT) to measure conscious (un-anaesthetized) and unrestrained systolic and diastolic blood pressure following oral dosing with Compound A, verapamil or a combination of the two. The study design was a three way crossover with one week between doses to ensure complete elimination of residual agents from the dogs' circulatory system. Data was analyzed for a twelve hour period, starting with one hour pre-oral dosing of Compound A and ending with eleven hours post-dosing. Data acquisition and analysis was performed using LDS Life Science Suite Ponemah P3 plus V 4.20 software with results reported as 10 minute averages for each animal.

[4] abbreviates: Compound A 0.03 μM, aspirin 3 mg/kg, or both.
The mark [5] stands for this setting: Compound A added to blood samples from donors under aspirin therapy.
Where [6] appears, read: addition of Compound A to whole blood of aspirin treated donors prior to collagen activation.

For `COc1ccc(NC(=O)c2ccc(C(=N)N(C)C)cc2)c(C(=O)Nc2ccc(Cl)cn2)c1` [Compound A, [2-({4-[(dimethylamino)iminomethyl]phenyl}carbonylamino)-5-methoxyphenyl]-N-(5-chloro(2-pyridyl))carboxamide], the “correlation between Compound A plasma concentration and inhibition of thrombin generation” value in the data set with thrombin generation (plasma of healthy volunteers, single and multiple ascending doses (FIG. 1, FIG. 2)) is “good correlation”. Also, in the data set with thrombin generation (total knee replacement patients, 15 mg or 40 mg oral twice a day), the “effect on inhibition of thrombin generation” value was “dose- and concentration-dependent effect”. For the same molecule, the inhibition at 0.03 µM in data set [1] was -2%. Further, the inhibition at 0.1 µM in data set [1] amounted to 4%. Also, the inhibition at 0.3 µM in data set [1] is 0.8%. The PT ratio worked out at 1.08 in data set [2] (0.03 μM Compound A), 1.19 in data set [2] (0.1 μM Compound A), 1.33 in data set [2] (0.3 μM Compound A) and 1.07 in data set [2] (setting [4]). In data set [2] (setting [4]), the “APTT Ratio” value came to 1.08. The “change in PT” value in data set [2] (therapeutic dose of the single agent) came out at 33%. For the same molecule, in the data set on cytokine release, the “inhibition of cytokine release” value is given as “did not produce statistically significant inhibition of cytokine release”. Also, the “fold change of Interleukin 6 release” value with Interleukin 6 (50 nM Compound A) came out at 1.01; in the data set on Interleukin 6 (200 nM Compound A) it was 0.96; with Interleukin 6 (500 nM Compound A), 0.87. For the same molecule, in the data set with Interleukin 6 (setting [5]), the “reduction in the levels of released interleukin 6” value is 25%. In addition, the “further reduction of interleukin 6” value in the data set with Interleukin 6 (setting [6]) was determined as 16%. Moreover, the “reduction in the levels of released interleukin 8” value in the data set with Interleukin 8 (setting [5]) was 44%. Moreover, the “further reduction of interleukin 8” value in the data set on Interleukin 8 (setting [6]) is 18%. For the same molecule, the “plasma concentrations of Compound A, dual treatment versus single treatment” value in data set [3] is “about two times higher”.
